Laboratory results reported in paper PMC8016998, “Identification of potential therapeutic antimicrobial peptides against Acinetobacter baumannii in a mouse model of pneumonia” (Scientific Reports, 2021).
No end group written: not given here.

How the values were obtained:
[1] = system: A. baumannii laboratory strains (ATCC strains 17,978 and 19,606); type: cell-based, Acinetobacter baumannii; settings: disc diffusion; activity = inhibition zone diameter ≥ 10 mm
Experimental: The antimicrobial activities of 58 AMPs were screened against A. baumannii laboratory strains (ATCC strains 17,978 and 19,606) in vitro using a disc diffusion assay (Supplementary Table 1).
The antimicrobial activity against Acinetobacter baumannii were determined by a inhibition zone
assay, performed as previous described1. The AMPs with an inhibition zone diameter ≥ 10 mm were
determined as the AMPs with antimicrobial activity.

LD50 (preliminary data) = type: in vivo; settings: intratracheal administration
[2] = system: MDRAB clinical strain W11; type: cell-based, Acinetobacter baumannii; settings: strain W11, 24 h 37 °C
[3] = system: MDRAB clinical strain U95; type: cell-based, Acinetobacter baumannii; settings: strain U95, 24 h 37 °C
Experimental: (§1) MBC were determined by extending the MIC procedure in sterilized 96-well polypropylene microtiter plates according to the broth microdilution guidelines of the Clinical and Laboratory Standards Institute with some modification[47]. […] In addition, 10 µL was drawn from each well with no visible turbidity onto LB agar plates and incubated for 24 h at 37 °C. The lowest concentration showing no visible growth on agar subculture was used as the MBC value. All experiments were performed in triplicate.

[4] = system: MDRAB clinical strain AE5; type: cell-based, Acinetobacter baumannii; settings: strain AE5, 24 h 37 °C
Experimental: as §1

[5] = system: MDRAB clinical strain AE6; type: cell-based, Acinetobacter baumannii; settings: strain AE6, 24 h 37 °C
Experimental: as §1

[6] = system: Acinetobacter baumannii 19,606; type: cell-based; settings: 24 h at 37 °C, triplicate
[7] = system: MDRAB clinical strain AN10; type: cell-based, Acinetobacter baumannii; settings: strain AN10, 24 h 37 °C
Experimental: as §1

[8] = system: MDRAB clinical strain AO80; type: cell-based, Acinetobacter baumannii; settings: strain AO80, 24 h 37 °C
[9] = system: MDRAB clinical strain AG51; type: cell-based, Acinetobacter baumannii; settings: strain AG51, 24 h 37 °C
[10] = system: MDRAB clinical strain D29; type: cell-based, Acinetobacter baumannii; settings: strain D29, 24 h 37 °C
Experimental: as §1

[11] = system: MDRAB clinical strain AK61; type: cell-based, Acinetobacter baumannii; settings: strain AK61, 24 h 37 °C
Experimental: as §1

[12] = system: MDRAB clinical strain AZ93; type: cell-based, Acinetobacter baumannii; settings: strain AZ93, 24 h 37 °C
[13] = system: MDRAB clinical strain AF11; type: cell-based, Acinetobacter baumannii; settings: strain AF11, 24 h 37 °C
[14] = system: MDRAB clinical strain O59; type: cell-based, Acinetobacter baumannii; settings: strain O59, 24 h 37 °C
Experimental: as §1

[15] = system: MDRAB clinical strain L87; type: cell-based, Acinetobacter baumannii; settings: strain L87, 24 h 37 °C
Experimental: as §1

[16] = system: MDRAB clinical strain AL87; type: cell-based, Acinetobacter baumannii; settings: strain AL87, 24 h 37 °C
Experimental: as §1

[17] = system: MDRAB clinical strain J49; type: cell-based, Acinetobacter baumannii; settings: strain J49, 24 h 37 °C
Experimental: as §1

[18] = system: MDRAB clinical strain AS40; type: cell-based, Acinetobacter baumannii; settings: strain AS40, 24 h 37 °C
Experimental: as §1

MDRAB clinical strain K2 = type: cell-based, Acinetobacter baumannii; settings: strain K2, 24 h 37 °C
Experimental: as §1

[19] = system: Acinetobacter baumannii 17,978; type: cell-based; settings: 24 h at 37 °C, triplicate;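 further: CLSI broth microdilution in 96-well polypropylene plates, MBC taken as lowest concentration giving no growth when clear wells were subcultured on LB agar for 24 h at 37 °C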
Experimental: as §1

[20] = system: MDRAB clinical strain Y92; type: cell-based, Acinetobacter baumannii; settings: strain Y92, 24 h 37 °C
Experimental: as §1

[21] = system: MDRAB clinical strain AF93; type: cell-based, Acinetobacter baumannii; settings: strain AF93, 24 h 37 °C
[22] = system: MDRAB clinical strain AF12; type: cell-based, Acinetobacter baumannii; settings: strain AF12, 24 h 37 °C
[23] = system: MDRAB clinical strain AK29; type: cell-based, Acinetobacter baumannii; settings: strain AK29, 24 h 37 °C
Experimental: as §1

[24] = system: MDRAB clinical strain U80; type: cell-based, Acinetobacter baumannii; settings: strain U80, 24 h 37 °C
Experimental: as §1

MDRAB clinical strains = type: cell-based, Acinetobacter baumannii; settings: range over MDRAB clinical strains (details in Supplementary Table 2), 24 h 37 °C
Experimental: as §1

[25] = 10 µL from wells without turbidity onto LB agar

AKKVFKRLG IGKFLHSAKKF-NH2 [HPMA, antimicrobial peptide]
antimicrobial activity against Acinetobacter baumannii (inhibition zone assay) [1]: without antimicrobial activity (The antimicrobial peptides without antimicrobial activity)

AKKVFKRLGIGAVLKVLTTG [HPME, antimicrobial peptide]
antimicrobial activity against Acinetobacter baumannii (inhibition zone assay) [1]: without antimicrobial activity (The antimicrobial peptides without antimicrobial activity)

FIHHIIGGLFSAGKAIHRLIRRRRR [TP4]
LD50 (LD50 (preliminary data)): 10 to 20 mg/kg

GLLRKGGEKIGEKLKKIGQKIKNFFQKLVPQPEQ [CRAMP, antimicrobial peptide]
antimicrobial activity against Acinetobacter baumannii (inhibition zone assay) [1]: without antimicrobial activity (The antimicrobial peptides without antimicrobial activity)

ILGPVLSMVGSALGGLIKKI-NH2 [Maximin H2]
MIC ([2]; broth microdilution, LB): 64 µg/mL | MBC ([2]; subculture on LB agar): 128 µg/mL | MIC ([3]; broth microdilution, LB): 128 µg/mL | MBC ([3]; subculture on LB agar): 128 µg/mL | MIC ([4]; broth microdilution, LB): 64 µg/mL | MBC ([4]; subculture on LB agar): 128 µg/mL | MIC ([5]; broth microdilution, LB): 128 µg/mL | MBC ([5]; subculture on LB agar): 128 µg/mL | MBC [6, 25]: 32 µg/mL | MIC ([6]; broth microdilution (CLSI, modified), LB medium, 5 × 10^5 CFU/mL): 32 µg/mL | MIC ([7]; broth microdilution, LB): 64 µg/mL | MBC ([7]; subculture on LB agar): 64 µg/mL | MIC ([8]; broth microdilution, LB): 64 µg/mL | MBC ([8]; subculture on LB agar): 128 µg/mL | MIC ([9]; broth microdilution, LB): 32 µg/mL | MBC ([9]; subculture on LB agar): 64 µg/mL | MIC ([10]; broth microdilution, LB): 128 µg/mL | MBC ([10]; subculture on LB agar): 128 µg/mL | MIC ([11]; broth microdilution, LB): 64 µg/mL | MBC ([11]; subculture on LB agar): 64 µg/mL | MIC ([12]; broth microdilution, LB): 64 µg/mL | MBC ([12]; subculture on LB agar): 64 µg/mL | MIC ([13]; broth microdilution, LB): 128 µg/mL | MBC ([13]; subculture on LB agar): 128 µg/mL | MIC ([14]; broth microdilution, LB): 128 µg/mL | MBC ([14]; subculture on LB agar): 128 µg/mL | MIC ([15]; broth microdilution, LB): 128 µg/mL | MBC ([15]; subculture on LB agar): 128 µg/mL | MIC ([16]; broth microdilution, LB): 64 µg/mL | MBC ([16]; subculture on LB agar): 64 µg/mL | MIC ([17]; broth microdilution, LB): 16 µg/mL | MBC ([17]; subculture on LB agar): 16 µg/mL | MIC ([18]; broth microdilution, LB): 64 µg/mL | MBC ([18]; subculture on LB agar): 64 µg/mL | MIC (MDRAB clinical strain K2; broth microdilution, LB): 16 µg/mL | MBC (MDRAB clinical strain K2; subculture on LB agar): 32 µg/mL | MBC [19, 25]: 128 µg/mL | MIC ([19]; broth microdilution (CLSI, modified), LB medium, 5 × 10^5 CFU/mL, lowest concentration with no visible growth): 64 µg/mL | MIC ([20]; broth microdilution, LB): 64 µg/mL | MBC ([20]; subculture on LB agar): 128 µg/mL | MIC ([21]; broth microdilution, LB): 64 µg/mL | MBC ([21]; subculture on LB agar): 64 µg/mL | MIC ([22]; broth microdilution, LB): 64 µg/mL | MBC ([22]; subculture on LB agar): 64 µg/mL | MIC ([23]; broth microdilution, LB): 32 µg/mL | MBC ([23]; subculture on LB agar): 32 µg/mL | MIC ([24]; broth microdilution, LB): 128 µg/mL | MBC ([24]; subculture on LB agar): 128 µg/mL | MIC (MDRAB clinical strains; broth microdilution, LB): 16 to 128 µg/mL | MBC (MDRAB clinical strains; subculture on LB agar): 16 to 128 µg/mL

KQFRIRVRV [Peptide 1029, antimicrobial peptide]
antimicrobial activity against Acinetobacter baumannii (inhibition zone assay) [1]: without antimicrobial activity (The antimicrobial peptides without antimicrobial activity)

KRFRIRVRV [Peptide 1037, antimicrobial peptide]
antimicrobial activity against Acinetobacter baumannii (inhibition zone assay) [1]: without antimicrobial activity (The antimicrobial peptides without antimicrobial activity)
